According to patent US7541353B2, “Compounds for the treatment of hepatitis C” (Bristol-Myers Squibb Company, priority 2007, dated 2009):

Legend:
HCV NS5B = target: T1, HCV NS5B (Hepatitis C virus genotype 1b, UniProt Q9WMX2); assay: Modified HCV NS5B RdRp enzyme assay (preincubation protocol); type: biochemical
T1 construct: The cDNA encoding the NS5B protein of HCV, genotype 1b; made in house; host or cells: E. coli BL21(DE3)
Experimental: HCV NS5B RdRp cloning, expression, and purification. The cDNA encoding the NS5B protein of HCV, genotype 1b, was cloned into the pET21a expression vector. The protein was expressed with an 18 amino acid C-terminal truncation to enhance the solubility. The E. coli competent cell line BL21(DE3) was used for expression of the protein. Cultures were grown at 37° C. for ˜4 hours until the cultures reached an optical density of 2.0 at 600 nm. The cultures were cooled to 20° C. and induced with 1 mM IPTG. Fresh ampicillin was added to a final concentration of 50 μg/ml and the cells were grown overnight at 20° C.
Cell pellets (3L) were lysed for purification to yield 15-24 mgs of purified NS5B. The lysis buffer consisted of 20 mM Tris-HCl, pH 7.4, 500 mM NaCl, 0.5% triton X-100, 1 mM DTT, 1 mM EDTA, 20% glycerol, 0.5 mg/ml lysozyme, 10 mM MgCl2, 15 ug/ml deoxyribonuclease I, and Complete™ protease inhibitor tablets (Roche). After addition of the lysis buffer, frozen cell pellets were resuspended using a tissue homogenizer. To reduce the viscosity of the sample, aliquots of the lysate were sonicated on ice using a microtip attached to a Branson sonicator. The sonicated lysate was centrifuged at 100,000×g for 1 hr at 4° C. and filtered through a 0.2 μm filter unit (Corning).
The protein was purified using two sequential chromatography steps: Heparin sepharose CL-6B and polyU sepharose 4B (Pharmacia). The chromatography buffers were identical to the lysis buffer but contained no lysozyme, deoxyribonuclease I, MgCl2 or protease inhibitor and the NaCl concentration of the buffer was adjusted according to the requirements for charging the protein onto the column. Each column was eluted with a NaCl gradient which varied in length from 5-50 column volumes depending on the column type. After the final chromatography step, the resulting purity of the enzyme is >90% based on SDS-PAGE analysis. The enzyme was aliquoted and stored at −80° C.
Standard HCV NS5B RdRp enzyme assay. HCV RdRp genotype 1b assays were run in a final volume of 60 μl in 96 well plates (Corning 3600). The assay buffer is composed of 20 mM Hepes, pH 7.5, 2.5 mM KCl, 2.5 mM MgCl2, 1 mM DTT, 1.6 U RNAse inhibitor (Promega N2515), 0.01 mg/ml BSA (Sigma B6917), and 2% glycerol. All compounds were serially diluted (3-fold) in DMSO and diluted further in water such that the final concentration of DMSO in the assay was 2%. HCV RdRp genotype 1b enzyme was used at a final concentration of 28 nM. A polyA template was used at 6 nM, and a biotinylated oligo-dT12 primer was used at 180 nM final concentration. Template was obtained commercially (Amersham 27-4110). Biotinylated primer was prepared by Sigma Genosys. 3H-UTP was used at 0.6 μCi (0.29 μM total UTP). Reactions were initiated by the addition of enzyme, incubated at 30° C. for 60 min, and stopped by adding 25 μl of 50 mM EDTA containing SPA beads (4 μg/μl, Amersham RPNQ 0007). Plates were read on a Packard Top Count NXT after >1 hr incubation at room temperature.
Modified HCV NS5B RdRp enzyme assay. A modified enzyme assay was performed essentially as described for the standard enzyme assay except for the following: The biotinylated oligo dT12 primer was precaptured on streptavidin-coated SPA beads by mixing primer and beads in assay buffer and incubating at room temperature for one hour. Unbound primer was removed after centrifugation. The primer-bound beads were resuspended in 20 mM Hepes buffer, pH 7.5 and used in the assay at final concentrations of 20 nM primer and 0.67 μg/μl beads. Order of addition in the assay: enzyme (1.75 nM) was added to diluted compound followed by the addition of a mixture of template (0.36 nM), 3H-UTP (0.6 μCi, 0.29 μM), and primer-bound beads, to initiate the reaction; concentrations given are final. Reactions were allowed to proceed for 4 hours at 30° C.
IC50 values for compounds were determined using seven different [I]. […]

HCV replicon cells = assay: HCV replicon FRET assay; type: cell-based; details: Hepatitis C virus
Experimental: FRET Assay Preparation. The HCV FRET screening assay was performed in 96-well cell culture plates. The FRET peptide (Anaspec, Inc.) (Taliani et al., Anal. Biochem. 1996, 240, 60-67) contains a fluorescence donor, EDANS, near one end of the peptide and an acceptor, DABCYL, near the other end. The fluorescence of the peptide is quenched by […] resonance energy transfer (RET) between the donor and the acceptor, but as the NS3 protease cleaves the peptide the products are released from RET quenching and the fluorescence of the donor becomes apparent. The assay reagent was made as follows: 5× cell Luciferase cell culture lysis reagent from Promega (#E153A) diluted to 1× with dH2O, NaCl added to 150 mM final, the FRET peptide diluted to 20 μM final from a 2 mM stock.
To prepare plates, HCV replicon cells, with or without a Renilla luciferase reporter gene, were trypsinized and plated in a 96-well plate with titrated test compounds added in columns 3 through 12; columns 1 and 2 contained a control compound (HCV control inhibitor), and the bottom row contained cells with DMSO only. The plates were then placed in a CO2 incubator at 37° C.
Assays. Subsequent to addition of the test compounds described above (FRET Assay Preparation), at various times the plate was removed and Alamar blue solution (Trek Diagnostics, #00-100) was added to measure cellular toxicity. After reading in a Cytoflour 4000 instrument (PE Biosystems), plates were rinsed with PBS and then used for FRET assay by the addition of 30 ul of the FRET peptide assay reagent described above (FRET Assay Preparation) per well. The plate was then placed into the Cytoflour 4000 instrument which had been set to 340 excite/490 emission, automatic mode for up to 20 cycles and the plate read in a kinetic mode. Typically, the signal to noise using an endpoint analysis after the reads was at least three-fold. Alternatively, after Alamar blue reading, plates were rinsed with PBS, then used for luciferase assay using the Promega Dual-Glo Luciferase Assay System or the Promega EnduRen Live Cell Substrate assay.
Compound analysis was performed by quantification of the relative HCV replicon inhibition and the relative cytotoxicity values. To calculate cytoxicity values, the average Alamar Blue fluorescence signals from the control wells were set as 100% non-toxic. The individual signals in each of the compound test wells were then divided by the average control signal and multiplied by 100% to determine […]. To calculate the HCV replicon inhibition values, an average background value was obtained from the two wells containing the highest amount of HCV control inhibitor at the end of the assay period. These numbers were similar to those obtained from naïve Huh-7 cells. The background numbers were then subtracted from the average signal obtained from the control wells and this number was used as 100% activity. The individual signals in each of the compound test wells were then divided by the averaged control values after background subtraction and multiplied by 100% to determine percent activity. EC50 values were calculated as the concentration which caused a 50% reduction in FRET or luciferase activity. The two numbers generated for the compound plate, percent cytoxicity and percent activity, were used to determine compounds of interest for further analysis.

T1 sequence (Q9WMX2 2420-2992): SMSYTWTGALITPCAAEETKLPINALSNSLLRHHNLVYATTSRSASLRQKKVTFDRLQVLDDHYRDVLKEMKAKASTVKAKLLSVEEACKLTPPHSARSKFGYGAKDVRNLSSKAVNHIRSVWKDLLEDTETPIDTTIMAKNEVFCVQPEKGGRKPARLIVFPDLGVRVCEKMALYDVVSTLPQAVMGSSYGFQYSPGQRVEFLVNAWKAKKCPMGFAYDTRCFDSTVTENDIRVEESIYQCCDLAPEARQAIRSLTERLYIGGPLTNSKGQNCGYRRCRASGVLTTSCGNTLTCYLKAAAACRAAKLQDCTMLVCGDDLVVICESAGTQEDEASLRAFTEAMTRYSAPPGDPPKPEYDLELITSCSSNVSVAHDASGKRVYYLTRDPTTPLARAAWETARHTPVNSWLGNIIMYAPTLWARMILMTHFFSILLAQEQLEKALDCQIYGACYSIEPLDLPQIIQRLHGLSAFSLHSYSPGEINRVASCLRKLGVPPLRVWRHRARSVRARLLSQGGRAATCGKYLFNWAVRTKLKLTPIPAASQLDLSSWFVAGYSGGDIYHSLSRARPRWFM

Structure (SMILES)	IC50 (HCV NS5B) [µM]	EC50 (HCV replicon cells) [µM]
COc1ccc2c(c1)C=C(C(=O)N1C3CCCC1COC3)Cn1c-2c(C2CCCCC2)c2ccc(C(=O)NS(=O)(=O)C3CC3)cc21	0.00458 to 0.5	0.00458 to 0.5
CCNC1CC2CCC(C1)N2C(=O)C12CC1c1cc(OC)ccc1-c1c(C3CCCCC3)c3ccc(C(=O)NS(=O)(=O)N(C)C)cc3n1C2 (centres unmarked)	0.00458 to 0.5	0.00458 to 0.5
COc1ccc2c(c1)C1CC1(C(=O)N1C3CCC1CC(O)(C1CC1)C3)Cn1c-2c(C2CCCCC2)c2ccc(C(=O)NS(=O)(=O)N(C)C)cc21 (centres unmarked)	0.00458 to 0.5	0.00458 to 0.5
COc1ccc2c(c1)C1CC1(C(=O)N1C3CCC1CC(C)(O)C3)Cn1c-2c(C2CCCCC2)c2ccc(C(=O)NS(=O)(=O)N3CCC3)cc21 (centres unmarked)	0.00458 to 0.5	0.00458 to 0.5
